This note sets out measurements from PubChem BioAssay (NCI).

Test systems include EKVX NSCLC; HOP-62 NSCLC; KM12 colon; MALME-3M melanoma; MDA-MB-231 breast; MOLT-4 leukemia; NCI/ADR-RES ovarian; OVCAR-3 ovarian; OVCAR-4 ovarian; U251 CNS.
Assay in all cases: NCI anticancer screen, dose series, 48 h

Molecules are shown by their SMILES.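 1) Cells in 96-well plates. 2) Compound, 48 h, 5 concentrations. 3) Linear interpolation between surrounding doses. 4) Unreached endpoint = highest concentration. The concentration for 50% growth inhibition is given as GI50. TGI denotes the concentration required for complete inhibition of growth.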

Take `CN(C)CCNC(=O)c1cccc2cc3ccccc3nc12`: the GI50 was 2.25 µM in the assay on EKVX NSCLC; 0.961 µM with HOP-62 NSCLC; 2.07 µM in the assay with KM12 colon; 1.4 µM with MALME-3M melanoma; 2.35 µM in the assay with MDA-MB-231 breast; 0.399 µM in the assay on MOLT-4 leukemia. Besides, the GI50 in the assay on NCI/ADR-RES ovarian was 1.55 µM; with OVCAR-3 ovarian, 1.36 µM; in the assay with OVCAR-4 ovarian it was 2.11 µM; in the assay on U251 CNS, 1.02 µM. Further, the TGI turned out to be 7.81 µM with EKVX NSCLC; 6.68 µM with HOP-62 NSCLC; 10.2 µM with KM12 colon; 3.34 µM with MALME-3M melanoma; 9.65 µM in the assay with MDA-MB-231 breast; 7.95 µM in the assay on MOLT-4 leukemia. Also, the TGI with NCI/ADR-RES ovarian worked out at 5.83 µM; in the assay on OVCAR-3 ovarian, 4.22 µM; in the assay with OVCAR-4 ovarian, 4.99 µM; in the assay with U251 CNS, 4.91 µM.
On to `COc1ccc2cc(C(=O)/C=C/c3cccc(Cl)c3Cl)ccc2c1`, for which the GI50 with EKVX NSCLC is 20.1 µM; in the assay with HOP-62 NSCLC, 15.4 µM; in the assay on KM12 colon it was 8.08 µM; in the assay with MALME-3M melanoma it was > 100 µM; in the assay with MDA-MB-231 breast, 12.2 µM; with MOLT-4 leukemia it was 27.5 µM. Further, the GI50 in the assay on NCI/ADR-RES ovarian was 12.7 µM; in the assay on OVCAR-3 ovarian, 7.87 µM; in the assay on OVCAR-4 ovarian it was 44.6 µM; in the assay on U251 CNS, 6.19 µM. Besides, the TGI is > 100 µM in the assay on EKVX NSCLC; 38.9 µM in the assay on HOP-62 NSCLC; 64.3 µM in the assay on KM12 colon; > 100 µM in the assay with MALME-3M melanoma; 39.6 µM in the assay with MDA-MB-231 breast; > 100 µM with MOLT-4 leukemia. Moreover, the TGI is > 100 µM with NCI/ADR-RES ovarian, 30.1 µM in the assay on OVCAR-3 ovarian, > 100 µM in the assay on OVCAR-4 ovarian and 65.3 µM in the assay on U251 CNS.
With `CCc1cccc(CC)c1NC(=S)NC(=O)c1ccc(Br)cc1`, the TGI was > 100 µM in the assay with EKVX NSCLC; > 100 µM in the assay with HOP-62 NSCLC; > 100 µM in the assay with KM12 colon; > 77.1 µM in the assay with MALME-3M melanoma; > 100 µM in the assay with MDA-MB-231 breast; 53.9 µM with MOLT-4 leukemia. The TGI in the assay with NCI/ADR-RES ovarian was > 100 µM; with OVCAR-3 ovarian, > 100 µM; in the assay on OVCAR-4 ovarian, > 50.4 µM; in the assay with U251 CNS, > 100 µM.
As for `Cc1ccc(S(=O)(=O)N2CCSCCSCCN(S(=O)(=O)c3ccc(C)cc3)CCN(S(=O)(=O)c3ccc(C)cc3)CC2)cc1`, the TGI with EKVX NSCLC, with HOP-62 NSCLC, in the assay on KM12 colon, in the assay on MALME-3M melanoma, in the assay on MDA-MB-231 breast and in the assay with MOLT-4 leukemia was > 100 µM each time. The TGI in the assay with NCI/ADR-RES ovarian, in the assay with OVCAR-3 ovarian, in the assay with OVCAR-4 ovarian and with U251 CNS was > 100 µM throughout.
As for `O=C(Nc1cnn2ccc(N3CCC[C@@H]3c3cc(F)ccc3F)nc12)N1CC[C@H](O)C1`, the GI50 in the assay with EKVX NSCLC was > 100 µM; in the assay on HOP-62 NSCLC, > 100 µM; in the assay on KM12 colon, 0.0122 µM; in the assay on MALME-3M melanoma, > 100 µM; in the assay on MDA-MB-231 breast it was > 100 µM; in the assay on MOLT-4 leukemia, > 100 µM. The GI50 in the assay on NCI/ADR-RES ovarian, in the assay with OVCAR-3 ovarian, in the assay with OVCAR-4 ovarian and in the assay with U251 CNS was > 100 µM throughout. For the same molecule, the TGI in the assay on EKVX NSCLC, with HOP-62 NSCLC, with KM12 colon, in the assay on MALME-3M melanoma, with MDA-MB-231 breast and with MOLT-4 leukemia was > 100 µM in each case. Besides, the TGI in the assay on NCI/ADR-RES ovarian, in the assay on OVCAR-3 ovarian, in the assay with OVCAR-4 ovarian and with U251 CNS was > 100 µM in each case.
For `COc1ccc(-c2cnc(-c3ccc(F)cc3)[nH]2)cc1`, the GI50 with EKVX NSCLC was 5.9 µM; in the assay with HOP-62 NSCLC it was 8.25 µM; in the assay with KM12 colon it was 1.7 µM; with MALME-3M melanoma, 6.12 µM; with MDA-MB-231 breast, 24 µM; with MOLT-4 leukemia, 10.5 µM. Besides, the GI50 in the assay with NCI/ADR-RES ovarian was 28.6 µM; in the assay with OVCAR-3 ovarian, 1.64 µM; in the assay with OVCAR-4 ovarian, 10.1 µM; with U251 CNS, 6.3 µM. The TGI was 18.5 µM with EKVX NSCLC; 21.4 µM in the assay on HOP-62 NSCLC; 3.27 µM in the assay with KM12 colon; 22.4 µM with MALME-3M melanoma; > 77.7 µM in the assay with MDA-MB-231 breast; 49.6 µM with MOLT-4 leukemia. Moreover, the TGI in the assay on NCI/ADR-RES ovarian is > 100 µM; in the assay with OVCAR-3 ovarian it was 3.65 µM; in the assay with OVCAR-4 ovarian, > 35.3 µM; in the assay with U251 CNS it was 17.2 µM.
As for `CCOC(=O)/C=C1\SC(=Nc2ccc(C#N)cc2)N(CCN2C(=O)/C(=C/C(=O)OCC)SC2=Nc2ccc(C#N)cc2)C1=O`, the GI50 is 5.2 µM in the assay on EKVX NSCLC; 2.55 µM in the assay on HOP-62 NSCLC; 1.17 µM in the assay with KM12 colon; 11 µM with MALME-3M melanoma; 2.09 µM with MDA-MB-231 breast; 1.15 µM with MOLT-4 leukemia. Besides, the GI50 in the assay on NCI/ADR-RES ovarian was 3.21 µM; in the assay with OVCAR-3 ovarian, 0.795 µM; in the assay with OVCAR-4 ovarian, 2.28 µM; in the assay with U251 CNS, 0.554 µM. For the same molecule, the TGI with EKVX NSCLC was 28.7 µM; in the assay on HOP-62 NSCLC, 8.39 µM; with KM12 colon, 5.48 µM; with MALME-3M melanoma it was 30 µM; in the assay on MDA-MB-231 breast, 7.85 µM; with MOLT-4 leukemia, > 100 µM. The TGI in the assay on NCI/ADR-RES ovarian stood at 42.3 µM; in the assay with OVCAR-3 ovarian it was 3.27 µM; in the assay on OVCAR-4 ovarian, 29.9 µM; with U251 CNS, 1.94 µM.
Consider `Nc1ccc(C#Cc2cncnc2Nc2ccc(OCc3cccc(F)c3)c(Cl)c2)cc1`, for which the GI50 with EKVX NSCLC was 3.07 µM; with HOP-62 NSCLC, > 17.3 µM; in the assay with KM12 colon, 10.2 µM; in the assay on MALME-3M melanoma, > 25 µM; in the assay on MDA-MB-231 breast, 8.08 µM; in the assay on MOLT-4 leukemia it was 19.5 µM. Further, the GI50 with NCI/ADR-RES ovarian was 12.7 µM; with OVCAR-3 ovarian, 8.87 µM; in the assay with OVCAR-4 ovarian, 12.3 µM; in the assay with U251 CNS, > 14 µM. In addition, the TGI with EKVX NSCLC, with HOP-62 NSCLC, in the assay with KM12 colon, in the assay with MALME-3M melanoma, with MDA-MB-231 breast and with MOLT-4 leukemia was > 25 µM in each case. For the same molecule, the TGI in the assay on NCI/ADR-RES ovarian, in the assay with OVCAR-3 ovarian, in the assay on OVCAR-4 ovarian and in the assay with U251 CNS was > 25 µM throughout.
